# Test results taken from patent US10428083B2, “Heterocyclylmethyl-thienouracile as antagonists of the adenosine-A2B-receptor” (BAYER PHARMA AKTIENGESELLSCHAFT, priority 2015, dated 2019).
# Target: human adenosine A2b receptor (Homo sapiens (Human), UniProt P29275)
# Experiment: Cellular in vitro reporter gene test for A2b receptor activity (CHO-K1, CRE-luciferase, NECA stimulation)
# Assay type: cell-based
# Details: recombinant CHO-K1 cell line, CRE-luciferase reporter, antagonism of EC50 concentration of NECA; in some cases means of several determinations, rounded to two significant figures; read-out: A2b receptor IC50
# In short: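 CHO-K1 cells with CRE-driven luciferase; antagonists co-incubated with NECA at its EC50, determined in a pre-experiment on each test day. Luciferase read by luminescence 3 h after NECA addition.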
# Chain of human adenosine A2b receptor (P29275 whole entry): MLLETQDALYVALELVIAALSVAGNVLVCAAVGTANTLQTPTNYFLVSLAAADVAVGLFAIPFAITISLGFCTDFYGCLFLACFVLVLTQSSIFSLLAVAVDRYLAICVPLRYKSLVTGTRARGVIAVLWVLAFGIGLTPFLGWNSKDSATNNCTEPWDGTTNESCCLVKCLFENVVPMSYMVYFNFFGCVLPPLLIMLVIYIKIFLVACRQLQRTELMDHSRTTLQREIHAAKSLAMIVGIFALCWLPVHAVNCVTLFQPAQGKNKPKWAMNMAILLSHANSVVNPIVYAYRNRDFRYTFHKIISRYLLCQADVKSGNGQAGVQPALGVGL
row,SMILES,IC50 [nM]
1,"COCCn1c(=O)n(CC(F)(F)F)c(=O)c2c(C)c(CN3CCNC3=NC(=O)OC)sc21 [Example 382, Methyl [1-{[1-(2-methoxyethyl)-5-methyl-2,4-dioxo-3-(2,2,2-trifluoroethyl)-1,2,3,4-tetrahydrothieno[2,3-d]pyrimidin-6-yl]methyl}imidazolidin-2-ylidene]carbamate]",6.8
2,"CCn1c(=O)c2c(C)c(Cn3c(C)c[nH]c3=O)sc2n(CCC(F)(F)F)c1=O [Example 251, 3-Ethyl-5-methyl-6-[(5-methyl-2-oxo-2,3-dihydro-1H-imidazol-1-yl)methyl]-1-(3,3,3-trifluoropropyl)thieno[2,3-d]pyrimidine-2,4(1H,3H)-dione]",1.3
3,"COCCn1c(=O)n(CCC=C(C)C)c(=O)c2c(C)c(CN3CCNC3=O)sc21 [Example 320, 1-(2-Methoxyethyl)-5-methyl-3-(4-methylpent-3-en-1-yl)-6-[(2-oxoimidazolidin-1-yl)methyl]thieno[2,3-d]pyrimidine-2,4(1H,3H)-dione]",0.44
4,"Cc1c(CN2CCNC2=NC#N)sc2c1c(=O)n(CC(F)(F)F)c(=O)n2CC1CCCO1 (single isomer, unassigned) [Example 360, [1-{[5-Methyl-2,4-dioxo-1-(tetrahydrofuran-2-ylmethyl)-3-(2,2,2-trifluoroethyl)-1,2,3,4-tetrahydrothieno[2,3-d]pyrimidin-6-yl]methyl}imidazolidin-2-ylidene]cyanamide]",10
5,"Cc1c(Cn2cc[nH]c2=O)sc2c1c(=O)n(CC(F)(F)F)c(=O)n2CC1CCCO1 (racemic) [Example 341, 5-Methyl-6-[(2-oxo-2,3-dihydro-1H-imidazol-1-yl)methyl]-1-(tetrahydrofuran-2-ylmethyl)-3-(2,2,2-trifluoroethyl)thieno[2,3-d]pyrimidine-2,4(1H,3H)-dione]",12
6,"COCCn1c(=O)c2c(C)c(CN3CCNC3=NC(=O)OC)sc2n(CC2CCO2)c1=O (racemic) [Example 387, Methyl [1-{[3-(2-methoxyethyl)-5-methyl-1-(oxetan-2-ylmethyl)-2,4-dioxo-1,2,3,4-tetrahydrothieno[2,3-d]pyrimidin-6-yl]methyl}imidazolidin-2-ylidene]carbamate]",96
7,"CCn1c(=O)c2c(C)c(Cn3ncn(CC(O)CO)c3=O)sc2n(CCOC(F)(F)F)c1=O (racemic) [Example 115, 6-{[4-(2,3-Dihydroxypropyl)-5-oxo-4,5-dihydro-1H-1,2,4-triazol-1-yl]methyl}-3-ethyl-5-methyl-1-[2-(trifluoromethoxy)ethyl]thieno[2,3-d]pyrimidine-2,4(1H,3H)-dione]",31
8,"COCCn1c(=O)c2c(C)c(CN3CCNC3=O)sc2n(CC2CCCO2)c1=O (single isomer, unassigned) [Example 324, 3-(2-Methoxyethyl)-5-methyl-6-[(2-oxoimidazolidin-1-yl)methyl]-1-(tetrahydrofuran-2-ylmethyl)thieno[2,3-d]pyrimidine-2,4(1H,3H)-dione]",110
9,"Cc1c(CN2CCN(C(C)C)C2=S)sc2c1c(=O)n(CC(C)C)c(=O)n2CCCF [Example 304, 1-(3-Fluoropropyl)-3-isobutyl-6-[(3-isopropyl-2-thioxoimidazolidin-1-yl)methyl]-5-methylthieno[2,3-d]pyrimidine-2,4(1H,3H)-dione]",73
10,"CCn1c(=O)c2c(C)c(Cn3cc[nH]c3=O)sc2n(CC2CCCO2)c1=O (single isomer, unassigned) [Example 244, 3-Ethyl-5-methyl-6-[(2-oxo-2,3-dihydro-1H-imidazol-1-yl)methyl]-1-(tetrahydrofuran-2-ylmethyl)thieno[2,3-d]pyrimidine-2,4(1H,3H)-dione]",13
11,"CCn1c(=O)c2c(C)c(CN3CCCNC3=O)sc2n(CCC(F)(F)F)c1=O [Example 107, 3-Ethyl-5-methyl-6-[(2-oxotetrahydropyrimidin-1(2H)-yl)methyl]-1-(3,3,3-trifluoropropyl)thieno[2,3-d]pyrimidine-2,4(1H,3H)-dione]",11
12,"CCn1c(=O)c2c(C)c(CN3CC(=O)NCC3=O)sc2n(CCC(F)(F)F)c1=O [Example 497, 6-[(2,5-Dioxopiperazin-1-yl)methyl]-3-ethyl-5-methyl-1-(3,3,3-trifluoropropyl)thieno[2,3-d]pyrimidine-2,4(1H,3H)-dione]",730

# The remaining compounds from weak to strong by IC50, led by results:
row,IC50 [nM],SMILES
1,63,"COCCn1c(=O)c2c(C)c(Cn3[nH]ccc3=O)sc2n(CCC(F)(F)F)c1=O [Example 287, 3-(2-Methoxyethyl)-5-methyl-6-[(5-oxo-2,5-dihydro-1H-pyrazol-1-yl)methyl]-1-(3,3,3-trifluoropropyl)thieno[2,3-d]pyrimidine-2,4(1H,3H)-dione]"
2,45,"CCOCCn1c(=O)n(CC(F)F)c(=O)c2c(C)c(CN3CCNC3=O)sc21 [Example 215, 3-(2,2-Difluoroethyl)-1-(2-ethoxyethyl)-5-methyl-6-[(2-oxoimidazolidin-1-yl)methyl]thieno[2,3-d]pyrimidine-2,4(1H,3H)-dione]"
3,43,"Cc1c(Cn2nc[nH]c2=O)sc2c1c(=O)n(CC(F)(F)F)c(=O)n2CC1CCCO1 (single isomer, unassigned) [Example 435, 5-Methyl-6-[(5-oxo-4,5-dihydro-1H-1,2,4-triazol-1-yl)methyl]-1-(tetrahydrofuran-2-ylmethyl)-3-(2,2,2-trifluoroethyl)thieno[2,3-d]pyrimidine-2,4(1H,3H)-dione]"
4,38,"CCn1c(=O)c2c(C)c(CN3CCNC(=O)C3=O)sc2n(CCOC2CC2)c1=O [Example 270, 1-[2-(Cyclopropyloxy)ethyl]-6-[(2,3-dioxopiperazin-1-yl)methyl]-3-ethyl-5-methylthieno[2,3-d]pyrimidine-2,4(1H,3H)-dione]"
5,34,"COCCn1c(=O)n(C(C)C)c(=O)c2c(C)c(Cn3nc[nH]c3=O)sc21 [Example 254, 3-Isopropyl-1-(2-methoxyethyl)-5-methyl-6-[(5-oxo-4,5-dihydro-1H-1,2,4-triazol-1-yl)methyl]thieno[2,3-d]pyrimidine-2,4(1H,3H)-dione]"
6,28,"Cc1c(Cn2cc[nH]c2=O)sc2c1c(=O)n(CC(C)(C)C)c(=O)n2CC1CCCO1 (racemic) [Example 507, 3-(2,2-Dimethylpropyl)-5-methyl-6-[(2-oxo-2,3-dihydro-1H-imidazol-1-yl)methyl]-1-(tetrahydrofuran-2-ylmethyl)thieno[2,3-d]pyrimidine-2,4(1H,3H)-dione]"
7,25,"CCOCCn1c(=O)n(CC(C)C)c(=O)c2c(C)c(CN3CCNC3=O)sc21 [Example 193, 1-(2-Ethoxyethyl)-3-isobutyl-5-methyl-6-[(2-oxoimidazolidin-1-yl)methyl]thieno[2,3-d]pyrimidine-2,4(1H,3H)-dione]"
8,22,"COC(=O)N=C1NCCN1Cc1sc2c(c1C)c(=O)n(C(C)C)c(=O)n2CC1CCCO1 (single isomer, unassigned) [Example 460, Methyl [1-{[3-isopropyl-5-methyl-2,4-dioxo-1-(tetrahydrofuran-2-ylmethyl)-1,2,3,4-tetrahydrothieno[2,3-d]pyrimidin-6-yl]methyl}imidazolidin-2-ylidene]carbamate]"
9,17,"Cc1c(CN2CCNC2=S)sc2c1c(=O)n(CC(F)F)c(=O)n2CC1CCCO1 (single isomer, unassigned) [Example 164, 3-(2,2-Difluoroethyl)-5-methyl-1-(tetrahydrofuran-2-ylmethyl)-6-[(2-thioxoimidazolidin-1-yl)methyl]thieno[2,3-d]pyrimidine-2,4(1H,3H)-dione]"
10,11,"Cc1c(CN2CCNC2=O)sc2c1c(=O)n(CC(F)F)c(=O)n2CCCF [Example 95, 3-(2,2-Difluoroethyl)-1-(3-fluoropropyl)-5-methyl-6-[(2-oxoimidazolidin-1-yl)methyl]thieno[2,3-d]pyrimidine-2,4(1H,3H)-dione]"
11,8.9,"Cc1c(CN2CCNC2=O)sc2c1c(=O)n(CC(F)(F)F)c(=O)n2CC1CCO1 (single isomer, unassigned) [Example 208, 5-Methyl-1-(oxetan-2-ylmethyl)-6-[(2-oxoimidazolidin-1-yl)methyl]-3-(2,2,2-trifluoroethyl)thieno[2,3-d]pyrimidine-2,4(1H,3H)-dione]"
12,7.8,"COCCn1c(=O)n(CC(C)OC)c(=O)c2c(C)c(CN3CCNC3=O)sc21 (single isomer, unassigned) [Example 234, 1-(2-Methoxyethyl)-3-(2-methoxypropyl)-5-methyl-6-[(2-oxoimidazolidin-1-yl)methyl]thieno[2,3-d]pyrimidine-2,4(1H,3H)-dione]"
13,5,"Cc1c(Cn2cc[nH]c2=O)sc2c1c(=O)n(CC(C)(C)C)c(=O)n2CCC(F)(F)F [Example 505, 3-(2,2-Dimethylpropyl)-5-methyl-6-[(2-oxo-2,3-dihydro-H-imidazol-1-yl)methyl]-1-(3,3,3-trifluoropropyl)thieno[2,3-d]pyrimidine-2,4(1H,3H)-dione]"
14,4.1,"COC(=O)N=C1NCCN1Cc1sc2c(c1C)c(=O)n(CC(F)(F)F)c(=O)n2CCC(F)(F)F [Example 381, Methyl [1-{[5-methyl-2,4-dioxo-3-(2,2,2-trifluoroethyl)-1-(3,3,3-trifluoropropyl)-1,2,3,4-tetrahydrothieno[2,3-d]pyrimidin-6-yl]methyl}imidazolidin-2-ylidene]carbamate]"
15,2.2,"CCn1c(=O)c2c(C)c(CN3CCNC3=S)sc2n(CCOC)c1=O [Example 31, 3-Ethyl-1-(2-methoxyethyl)-5-methyl-6-[(2-thioxoimidazolidin-1-yl)methyl]thieno[2,3-d]pyrimidine-2,4(1H,3H)-dione]"
16,1.6,"COCCn1c(=O)n(CCC(F)=C(F)F)c(=O)c2c(C)c(CN3CCNC3=O)sc21 [Example 321, 1-(2-Methoxyethyl)-5-methyl-6-[(2-oxoimidazolidin-1-yl)methyl]-3-(3,4,4-trifluorobut-3-en-1-yl)thieno[2,3-d]pyrimidine-2,4(1H,3H)-dione]"
